From patent publication US12171229B2, “Heteroaryl-triazole and heteroaryl-tetrazole compounds as pesticides” (BAYER AKTIENGESELLSCHAFT, priority 2018, dated 2024)

Columns and labels:
Type in all cases: in vivo
[1] = tested on: Ctenocephalides felis; experiment: Ctenocephalides felis oral test; conditions: 48 h, 100 ppm in cattle blood, after 2 days, adult unfed cat fleas
Description: Ctenocephalides Felis—Oral Test
Solvent: dimethyl sulfoxide
To produce a suitable preparation of active compound, 10 mg of active compound are dissolved in 0.5 ml solvent, and the concentrate is diluted with cattle blood to the desired concentration.
Approximately 20 adult unfed cat fleas (Ctenocephalides felis) are placed in flea chambers. The blood chamber, sealed with parafilm on the bottom, are filled with cattle blood supplied with compound solution and placed on the gauze covered top of the flea chamber, so that the fleas are able to suck the blood. The blood chamber is heated to 37° C. whereas the flea chamber is kept at room temperature.
After 2 days mortality in % is determined. 100% means all the fleas have been killed; 0% means none of the fleas have been killed.

[2] = tested on: Spodoptera frugiperda; experiment: Spodoptera frugiperda spray test; conditions: 168 h, after 7 days, larvae on maize leaf sections
Description: Spodoptera frugiperda—Spray Test
(§1) To produce a suitable preparation of active compound, 1 part by weight of active compound is mixed with the stated amount of solvents and is diluted with water, containing an emulsifier concentration of 1000 ppm, to the desired concentration. Further test concentrations are prepared by dilution with emulsifier containing water.
Maize (Zea mays) leaf sections are sprayed with a preparation of the active ingredient of the desired concentration. Once dry, the leaf sections are infested with fall armyworm larvae (Spodoptera frugiperda).
After 7 days mortality in % is determined. 100% means all caterpillars have been killed and 0% means none of the caterpillars have been killed.

[3] = tested on: Myzus persicae; experiment: Myzus persicae spray test; conditions: foliar, 120 h, after 5 days, Chinese cabbage leaf disks
Description: Myzus persicae—Spray Test
as §1
Chinese cabbage (Brassica pekinensis) leaf disks infected with all instars of the green peach aphid (Myzus persicae), are sprayed with a preparation of the active ingredient of the desired concentration.
(§2) After 5 days mortality in % is determined. 100% means all aphids have been killed and 0% means none of the aphids have been killed.

[4] = tested on: Myzus persicae; experiment: Myzus persicae oral test; conditions: 120 h, 4 ppm, after 5 days
Description: Solvent: 100 parts by weight acetone
To produce a suitable preparation of active compound, 1 part by weight of active compound is mixed with the stated amount of solvent, and the concentrate is diluted with water to the desired concentration.
50 μl compound solution is filled in microtiter plates and 150 μl IPL41 insect medium (33%+15% sugar) is added to obtain a total volume of 200 μl per well. Afterwards the plates are sealed with parafilm through which a mixed population of the green peach aphid (Myzus persicae) can suck on the compound preparation.
as §2

[5] = tested on: Nezara viridula; experiment: Nezara viridula spray test; conditions: 96 h, after 4 days, larvae on barley plants
Description: Nezara viridula—Spray Test
To produce a suitable preparation of active compound, 1 part by weight of active compound is mixed with the stated amount of solvent, and the concentrate is diluted with water, containing an emulsifier concentration of 1000 ppm, to the desired concentration. Further test concentrations are prepared by dilution with emulsifier containing water.
Barley plants (Hordeum vulgare) infested with larvae of the southern green stink bug (Nezara viridula) are sprayed with a test solution containing the desired concentration of the active ingredient.
After 4 days mortality in % is determined. 100% means all the stink bugs have been killed: 0% means none of the stink bugs have been killed.

[6] = tested on: Diabrotica balteata; experiment: Diabrotica balteata spray test; conditions: Diabrotica balteata, in Triticum aestivum, 168 h, after 7 days, larvae on wheat seeds, read-out: efficacy (seedlings grown up); for pest or weed control at 80 µg/disc, 250 g/ha: 80 μg/well (=250 g/ha); for pest or weed control at 160 µg/disc, 500 g/ha: 160 μg/well (=500 g/ha)
Description: Diabrotica balteata—Spray Test [table] To produce a suitable preparation of active compound, 1 part by weight of active compound is mixed with the stated amount of solvent, and the concentrate is diluted with water, containing an emulsifier concentration of 1000 ppm, to the desired concentration. Further test concentrations are prepared by dilution with emulsifier containing water. Soaked wheat seeds (Triticum aestivum) are placed in a multiple well plate filled with agar and some water and are incubated for 1 day to germinate (5 seeds per well). The germinated wheat seeds are sprayed with a test solution containing the desired concentration of the active ingredient. Afterwards each unit is infected with 10-20 larvae of the banded cucumber beetle (Diabrotica balteata). After 7 days efficacy in % is determined. 100% means all the seedlings have grown up like in the untreated, uninfected control; 0% means none of the seedlings have grown.

[7] = tested on: Boophilus microplus; experiment: Boophilus microplus injection test; conditions: Rhipicephalus microplus, 168 h; 20 μg/animal injected into the abdomen; adult engorged female ticks; egg deposition after 7 days; read-out: efficacy (infertile eggs)
Description: Boophilus Microplus—Injection Test Solvent: dimethyl sulfoxide To produce a suitable preparation of active compound, 10 mg of active compound are dissolved in 0.5 ml solvent, and the concentrate is diluted with solvent to the desired concentration. Five adult engorged female ticks (Boophilus microplus) are injected with 1 μl compound solution into the abdomen. The ticks are transferred into replica plates and incubated in a climate chamber. After 7 days egg deposition of fertile eggs is monitored. Eggs where fertility is not visible are stored in a climate chamber till hatching after about 42 days. An efficacy of 100% means all eggs are infertile; 0% means all eggs are fertile.

[8] = tested on: Aedes aegypti strain MONHEIM; experiment: Aedes aegypti test (AEDSAE surface treatment & contact assay); conditions: 24 hours after contact, read-out: efficacy (mortality)
Description: Aedes Aegypti Test (AEDSAE Surface Treatment & Contact Assay)
Solvent: Aceton+2000 ppm rapeseed oil methyl ester (RME)
In order to produce a sufficient, active ingredient containing solution it is necessary to solve the test compound in the solvent-mix (acetone at 2 mg/ml/RME 2000 ppm). This solution is pipetted onto a glazed tile and after evaporation of the acetone, adult mosquitoes of the species Aedes aegypti strain MONHEIM are placed onto the dried surface. The exposure time is 30 minutes.
Mortality in percent (%) is determined 24 hours after contact of the insects to the treated surface. 100% mortality means that all tested insects are dead, whereas 0% means that no insect died.

| Structure (SMILES) | mortality at 100 ppm [1] [%] | mortality at 500 g/ha [2] [%] | mortality at 100 g/ha [3] [%] | mortality at 4 ppm [4] [%] | mortality at 100 g/ha [5] [%] | mortality at 500 g/ha [5] [%] | pest or weed control at 80 µg/disc, 250 g/ha [6] [%] | pest or weed control at 160 µg/disc, 500 g/ha [6] [%] | mortality at 500 g/ha [3] [%] | pest or weed control at 0.02 mg [7] [%] | mortality at 4 mg/m2 ([8]; surface concentration 4 mg/m^2, exposure 30 minutes) [%] | mortality at 20 mg/m2 ([8]; surface concentration 20 mg/m^2, exposure 30 minutes) [%] | mortality at 100 g/ha [2] [%] |
| --- | --- | --- | --- | --- | --- | --- | --- | --- | --- | --- | --- | --- | --- |
| C[C@H](NC(=O)c1cc(F)c(Cl)c(F)c1)c1ncnn1-c1ccc(C#N)cn1 [Example I-021] | 100 | 100 | 100 | 100 | – | – | – | – | – | – | – | – | – |
| C[C@H](NC(=O)c1cc(Cl)cc(C(F)(F)F)c1)c1ncnn1-c1ccc(NS(C)(=O)=O)cn1 [Example I-054] | – | – | 90 | 100 | 90 | 100 | 100 | 100 | 90 | – | – | – | – |
| C[C@H](NC(=O)c1cncc(I)c1)c1ncnn1-c1ccc(C#N)cn1 [Example I-063] | 100 | 83 | – | 100 | – | – | 100 | 100 | – | 100 | 90 to 100 | 90 to 100 | – |
| CON=Cc1ccc(-n2ncnc2[C@H](C)NC(=O)c2cc(Cl)cc(C(F)(F)F)c2)nc1 [Example I-065, 3-chloro-N-[(1S)-1-(1-{5-[(methoxyimino)methyl]pyridin-2-yl}-1H-1,2,4-triazol-5-yl)ethyl]-5-(trifluoromethyl)benzamide] | – | 100 | – | – | – | 90 | 100 | 100 | 90 | – | – | – | 100 |
| C[C@H](NC(=O)c1cc(Cl)cc(C(F)(F)F)c1)c1ncnn1-c1ccc(NC(=O)CC#N)cn1 [Example I-073] | 100 | – | – | – | – | – | 100 | 100 | 90 | 100 | – | – | – |
| C[C@H](NC(=O)c1cc(Cl)cc(C(F)(F)F)c1)c1ncnn1-c1ccc(NC(=S)C2CC2)cn1 [Example I-098] | 100 | 100 | 90 | 100 | – | 90 | 100 | 100 | 90 | – | – | – | 100 |
| C[C@H](NC(=O)c1cc(Cl)cc(C(F)(F)F)c1)c1ncnn1-c1ccc(NC(=O)C2(Cl)CC2)cn1 [Example I-104] | – | 100 | – | 90 | – | 90 | – | 100 | 90 | – | – | – | 100 |
| C[C@H](NC(=O)c1cc(Cl)cc(OC(F)(F)F)c1)c1ncnn1-c1ccc(NC(=O)C2CC2)cn1 [Example I-105] | – | 100 | – | 100 | 100 | 100 | 100 | 100 | 90 | – | – | – | 100 |
| CC(=O)Nc1ccc(-n2ncnc2[C@H](C)NC(=O)c2cc(Cl)cc(OC(F)(F)F)c2)nc1 [Example I-106] | – | 100 | – | 100 | – | 100 | 100 | 100 | 90 | – | – | – | 100 |
| C[C@H](NC(=O)c1cc(Cl)cc(OC(F)F)c1)c1ncnn1-c1ccc(C#N)cn1 [Example I-107] | – | 100 | 90 | 100 | 100 | 100 | – | 100 | 90 | – | – | – | 100 |
| C[C@H](NC(=O)c1cc(Cl)cc(C(F)(F)F)c1)c1ncnn1-c1ccc(C(=O)N(C)C2CC2)cn1 [Example I-110, 6-(5-{(1S)-1-[3-chloro-5-(trifluoromethyl)benzamido]ethyl}-1H-1,2,4-triazol-1-yl)-N-cyclopropyl-N-methylnicotinamide] | – | 100 | 90 | – | – | 90 | – | 100 | 100 | – | – | – | 100 |
| Cc1nc([C@H](C)NC(=O)c2cc(Cl)cc(Cl)c2)n(-c2ccc(C#N)cn2)n1 [Example I-115] | – | 100 | 90 | 100 | – | 100 | – | 100 | 100 | – | – | – | 100 |
| Cc1nc([C@H](C)NC(=O)c2cc(Cl)cc(OC(F)(F)F)c2)n(-c2ccc(C#N)cn2)n1 [Example I-116] | – | 100 | 100 | 100 | 90 | 100 | – | 100 | 100 | – | – | – | 100 |
